# Data published in ChEMBL document CHEMBL1128318, “Synthesis of novel 2,4-diaminopyrrolo-[2,3-d]pyrimidines with antioxidant, neuroprotective, and antiasthma activity” (J Med Chem, 1995).
# pEC50, pIC50: −log10 of the molar value.
# Species on record: Mus musculus
# Test: The compound was evaluated for increase in neurological status at 1 hr post head injury using a simple grip test in mouse.
# Format: functional
# Conditions: not given
row,SMILES,Score [%]
1,Cn1c2c(c3c(N4CCCC4)nc(N4CCCC4)nc31)CCCC2,276
2,Cc1cc2c(N3CCCC3)nc(N3CCCC3)nc2n1C,100
3,COc1ccc(-c2cc3c(N4CCCC4)nc(N4CCCC4)nc3n2C)cc1,73
4,Cn1c(-c2ccc(O)cc2)cc2c(N3CCCC3)nc(N3CCCC3)nc21,138
5,C1CCc2c(c3c(N4CCCC4)nc(N4CCCC4)nc3n2CCN2CCOCC2)C1,163
6,Cn1c(-c2ccccc2)cc2c(N3CCCC3)nc(N3CCCC3)nc21,104

# Test system: Mus musculus
# Test: The compound was tested for inhibition of lung eosinophilia in mouse at 3 mg/kg/day, po
# Format: functional
# Conditions: not given
row,SMILES,inhibition in vivo at 3 mg/kg/day [%]
1,Cn1c2c(c3c(N4CCCC4)nc(N4CCCC4)nc31)CCCC2,0
2,Cc1cc2c(N3CCCC3)nc(N3CCCC3)nc2n1C,0
3,c1ccc2c(c1)c1c(N3CCCC3)nc(N3CCCC3)nc1n2CCN1CCOCC1,53
4,C1CCc2c(c3c(N4CCCC4)nc(N4CCCC4)nc3n2CCN2CCOCC2)C1,37

# Test system: not listed separately
# Test: The compound was tested for tmax value pharmacokinetic parameter in the male Sprague-Dawley rat.
# Format: ADME, organism-based
# Conditions: in vivo
row,SMILES,Tmax [h]
1,Cn1c2c(c3c(N4CCCC4)nc(N4CCCC4)nc31)CCCC2,2
2,Cc1cc2c(N3CCCC3)nc(N3CCCC3)nc2n1C,4
3,COc1ccc(-c2cc3c(N4CCCC4)nc(N4CCCC4)nc3n2C)cc1,4
4,Cn1c(-c2ccc(O)cc2)cc2c(N3CCCC3)nc(N3CCCC3)nc21,8
5,c1ccc2c(c1)c1c(N3CCCC3)nc(N3CCCC3)nc1n2CCN1CCOCC1,2
6,C1CCc2c(c3c(N4CCCC4)nc(N4CCCC4)nc3n2CCN2CCOCC2)C1,2
7,Cn1c(-c2ccccc2)cc2c(N3CCCC3)nc(N3CCCC3)nc21,4

# Test system: not listed separately
# Test: The compound was tested for terminal half-life pharmacokinetic parameter in the male Sprague-Dawley rat.
# Format: ADME, organism-based
# Conditions: in vivo
row,SMILES,half-life [h]
1,Cn1c2c(c3c(N4CCCC4)nc(N4CCCC4)nc31)CCCC2,8.9
2,Cc1cc2c(N3CCCC3)nc(N3CCCC3)nc2n1C,10.9
3,COc1ccc(-c2cc3c(N4CCCC4)nc(N4CCCC4)nc3n2C)cc1,24.3
4,Cn1c(-c2ccc(O)cc2)cc2c(N3CCCC3)nc(N3CCCC3)nc21,6.1
5,c1ccc2c(c1)c1c(N3CCCC3)nc(N3CCCC3)nc1n2CCN1CCOCC1,15.7
6,C1CCc2c(c3c(N4CCCC4)nc(N4CCCC4)nc3n2CCN2CCOCC2)C1,11.2
7,Cn1c(-c2ccccc2)cc2c(N3CCCC3)nc(N3CCCC3)nc21,22.1

# Test system: Mus musculus
# Test: The compound was tested for inhibition of lung eosinophilia in mouse at 30 mg/kg/day, po
# Format: functional
# Conditions: not given
row,SMILES,inhibition in vivo at 30 mg/kg/day [%]
1,Cn1c2c(c3c(N4CCCC4)nc(N4CCCC4)nc31)CCCC2,41
2,Cc1cc2c(N3CCCC3)nc(N3CCCC3)nc2n1C,0
3,c1ccc2c(c1)c1c(N3CCCC3)nc(N3CCCC3)nc1n2CCN1CCOCC1,71
4,C1CCc2c(c3c(N4CCCC4)nc(N4CCCC4)nc3n2CCN2CCOCC2)C1,72

# Test system: Mus musculus
# Test: The compound was tested for inhibition of lung eosinophilia in mouse at 10 mg/kg/day, po
# Format: functional
# Conditions: not given
row,SMILES,inhibition in vivo at 10 mg/kg/day [%]
1,Cn1c2c(c3c(N4CCCC4)nc(N4CCCC4)nc31)CCCC2,31
2,Cc1cc2c(N3CCCC3)nc(N3CCCC3)nc2n1C,0
3,c1ccc2c(c1)c1c(N3CCCC3)nc(N3CCCC3)nc1n2CCN1CCOCC1,62
4,C1CCc2c(c3c(N4CCCC4)nc(N4CCCC4)nc3n2CCN2CCOCC2)C1,56

# Test system: Rattus norvegicus
# Test: The compound was tested for inhibition of lung eosinophilia in rat at 3 mg/kg/day, po
# Format: functional
# Conditions: not given
row,SMILES,inhibition in vivo at 3 mg/kg/day [%]
1,Cn1c2c(c3c(N4CCCC4)nc(N4CCCC4)nc31)CCCC2,72
2,C1CCc2c(c3c(N4CCCC4)nc(N4CCCC4)nc3n2CCN2CCOCC2)C1,13

# Test system: Rattus norvegicus
# Test: The compound was tested for inhibition of lung eosinophilia in rat at 3mg/kg/day, po
# Format: functional
# Conditions: not given
row,SMILES,inhibition in vivo at 3 mg/kg/day [%]
1,Cc1cc2c(N3CCCC3)nc(N3CCCC3)nc2n1C,0

# Test system: not listed separately
# Test: The compound was tested for cytoprotective effect against the human astroglial cells.
# Format: functional, cell-based
# Conditions: not given
row,SMILES,pEC50
1,Cn1c2c(c3c(N4CCCC4)nc(N4CCCC4)nc31)CCCC2,6.70
2,Cc1cc2c(N3CCCC3)nc(N3CCCC3)nc2n1C,6.70
3,COc1ccc(-c2cc3c(N4CCCC4)nc(N4CCCC4)nc3n2C)cc1,6.40
4,Cn1c(-c2ccc(O)cc2)cc2c(N3CCCC3)nc(N3CCCC3)nc21,6.70
5,c1ccc2c(c1)c1c(N3CCCC3)nc(N3CCCC3)nc1n2CCN1CCOCC1,5.52
6,C1CCc2c(c3c(N4CCCC4)nc(N4CCCC4)nc3n2CCN2CCOCC2)C1,6.52
7,Cn1c(-c2ccccc2)cc2c(N3CCCC3)nc(N3CCCC3)nc21,6.05

# Test system: not listed separately
# Test: Oral bioavailability in rat (Sprague-Dawley) (male)
# Format: ADME, organism-based
# Conditions: in vivo
row,SMILES,bioavailability [%]
1,Cn1c2c(c3c(N4CCCC4)nc(N4CCCC4)nc31)CCCC2,70.2
2,Cc1cc2c(N3CCCC3)nc(N3CCCC3)nc2n1C,84.6
3,COc1ccc(-c2cc3c(N4CCCC4)nc(N4CCCC4)nc3n2C)cc1,59.8
4,Cn1c(-c2ccc(O)cc2)cc2c(N3CCCC3)nc(N3CCCC3)nc21,31.4
5,c1ccc2c(c1)c1c(N3CCCC3)nc(N3CCCC3)nc1n2CCN1CCOCC1,69.9
6,C1CCc2c(c3c(N4CCCC4)nc(N4CCCC4)nc3n2CCN2CCOCC2)C1,78.3
7,Cn1c(-c2ccccc2)cc2c(N3CCCC3)nc(N3CCCC3)nc21,55.9

# Species on record: Rattus norvegicus
# Test: The compound was tested for inhibition of [Fe2+]-induced MDA formation in rat brain homogenate.
# Format: functional
# Conditions: not given
row,SMILES,pIC50
1,Cn1c2c(c3c(N4CCCC4)nc(N4CCCC4)nc31)CCCC2,5.70
2,Cc1cc2c(N3CCCC3)nc(N3CCCC3)nc2n1C,6.00
3,COc1ccc(-c2cc3c(N4CCCC4)nc(N4CCCC4)nc3n2C)cc1,6.00
4,Cn1c(-c2ccc(O)cc2)cc2c(N3CCCC3)nc(N3CCCC3)nc21,6.00
5,Cn1c(-c2ccccc2)cc2c(N3CCCC3)nc(N3CCCC3)nc21,5.30

# Test system: not listed separately
# Test: The compound was tested for steady state volume of distribution pharmacokinetic parameter in the male Sprague-Dawley rat.
# Format: ADME, organism-based
# Conditions: in vivo
row,SMILES,Vd [L/kg]
1,Cn1c2c(c3c(N4CCCC4)nc(N4CCCC4)nc31)CCCC2,1.09
2,Cc1cc2c(N3CCCC3)nc(N3CCCC3)nc2n1C,39.7
3,COc1ccc(-c2cc3c(N4CCCC4)nc(N4CCCC4)nc3n2C)cc1,42.8
4,Cn1c(-c2ccc(O)cc2)cc2c(N3CCCC3)nc(N3CCCC3)nc21,66.2
5,c1ccc2c(c1)c1c(N3CCCC3)nc(N3CCCC3)nc1n2CCN1CCOCC1,1.92
6,C1CCc2c(c3c(N4CCCC4)nc(N4CCCC4)nc3n2CCN2CCOCC2)C1,0.94
7,Cn1c(-c2ccccc2)cc2c(N3CCCC3)nc(N3CCCC3)nc21,44

# Test system: not listed separately
# Test: The compound was tested for Cmax value pharmacokinetic parameter in the male Sprague-Dawley rat.
# Format: ADME, organism-based
# Conditions: in vivo
row,SMILES,Cmax [ng/mL]
1,Cn1c2c(c3c(N4CCCC4)nc(N4CCCC4)nc31)CCCC2,40300
2,Cc1cc2c(N3CCCC3)nc(N3CCCC3)nc2n1C,5710
3,COc1ccc(-c2cc3c(N4CCCC4)nc(N4CCCC4)nc3n2C)cc1,600
4,Cn1c(-c2ccc(O)cc2)cc2c(N3CCCC3)nc(N3CCCC3)nc21,720
5,c1ccc2c(c1)c1c(N3CCCC3)nc(N3CCCC3)nc1n2CCN1CCOCC1,14700
6,C1CCc2c(c3c(N4CCCC4)nc(N4CCCC4)nc3n2CCN2CCOCC2)C1,19400
7,Cn1c(-c2ccccc2)cc2c(N3CCCC3)nc(N3CCCC3)nc21,1420

# Test system: Rattus norvegicus
# Test: The compound was tested for inhibition of lung eosinophilia in rat at 30 mg/kg/day, po
# Format: functional
# Conditions: not given
row,SMILES,inhibition in vivo at 30 mg/kg/day [%]
1,Cc1cc2c(N3CCCC3)nc(N3CCCC3)nc2n1C,28

# Species on record: Mus musculus
# Test: The compound was tested for spinal neuroprotection in mouse.
# Format: functional, organism-based
# Conditions: not given
row,SMILES,pIC50
1,Cn1c2c(c3c(N4CCCC4)nc(N4CCCC4)nc31)CCCC2,6.47
2,Cc1cc2c(N3CCCC3)nc(N3CCCC3)nc2n1C,5.15
3,COc1ccc(-c2cc3c(N4CCCC4)nc(N4CCCC4)nc3n2C)cc1,5.47
4,Cn1c(-c2ccc(O)cc2)cc2c(N3CCCC3)nc(N3CCCC3)nc21,6.89
5,c1ccc2c(c1)c1c(N3CCCC3)nc(N3CCCC3)nc1n2CCN1CCOCC1,4.97
6,C1CCc2c(c3c(N4CCCC4)nc(N4CCCC4)nc3n2CCN2CCOCC2)C1,5.96
7,Cn1c(-c2ccccc2)cc2c(N3CCCC3)nc(N3CCCC3)nc21,5.89

# Test system: Rattus norvegicus
# Test: The compound was tested for inhibition of lung eosinophilia in rat at 10 mg/kg/day, po
# Format: functional
# Conditions: not given
row,SMILES,inhibition in vivo at 10 mg/kg/day [%]
1,Cc1cc2c(N3CCCC3)nc(N3CCCC3)nc2n1C,27
2,c1ccc2c(c1)c1c(N3CCCC3)nc(N3CCCC3)nc1n2CCN1CCOCC1,87
3,C1CCc2c(c3c(N4CCCC4)nc(N4CCCC4)nc3n2CCN2CCOCC2)C1,30

# Test system: Rattus norvegicus
# Test: The compound was tested for inhibition of lung eosinophilia in rat at 30mg/kg/day, po
# Format: functional
# Conditions: not given
row,SMILES,inhibition in vivo at 30 mg/kg/day [%]
1,Cn1c2c(c3c(N4CCCC4)nc(N4CCCC4)nc31)CCCC2,47
2,c1ccc2c(c1)c1c(N3CCCC3)nc(N3CCCC3)nc1n2CCN1CCOCC1,85
3,C1CCc2c(c3c(N4CCCC4)nc(N4CCCC4)nc3n2CCN2CCOCC2)C1,62

# Test system: not listed separately
# Test: The compound was tested for systemic clearance pharmacokinetic parameter in the male Sprague-Dawley rat.
# Format: ADME, organism-based
# Conditions: in vivo
row,SMILES,clearance [mL/min/kg]
1,Cn1c2c(c3c(N4CCCC4)nc(N4CCCC4)nc31)CCCC2,1.67
2,Cc1cc2c(N3CCCC3)nc(N3CCCC3)nc2n1C,8.83
3,COc1ccc(-c2cc3c(N4CCCC4)nc(N4CCCC4)nc3n2C)cc1,20.7
4,Cn1c(-c2ccc(O)cc2)cc2c(N3CCCC3)nc(N3CCCC3)nc21,38.8
5,c1ccc2c(c1)c1c(N3CCCC3)nc(N3CCCC3)nc1n2CCN1CCOCC1,2
6,C1CCc2c(c3c(N4CCCC4)nc(N4CCCC4)nc3n2CCN2CCOCC2)C1,0.967
7,Cn1c(-c2ccccc2)cc2c(N3CCCC3)nc(N3CCCC3)nc21,23.7
